Reference: ChEMBL document CHEMBL2177009, “The use of novel C-methylated spermidine derivatives to investigate the regulation of polyamine metabolism” (J Med Chem, 2011)

How the values were obtained:
DU-145 [1] = assay: Metabolic stability in N1,N11-diethyl-norspermine pretreated human DU145 cells expressing SSAT assessed as accumulation of acetylated derivatives of compound in medium at 100 uM after 48 hrs; assay type: ADME, cell-based; settings: du-145, 48 h
DU-145 [2] = assay: Metabolic stability in human DU145 cells assessed as intracellular compound/methylspermine level per ug DNA at 100 uM after 72 hrs in presence of serum amine oxidases inhibitor aminoguanidine; assay type: ADME, cell-based; settings: du-145, 72 h
[3] = target: T1, Peroxisomal N(1)-acetyl-spermine/spermidine oxidase (Homo sapiens, UniProt Q6QHF9); assay: Metabolic stability of the compound assessed as human recombinant APAO-mediated compound degradation at 0.5 to 1 mM after 5 to 60 mins in presence of benzaldehyde; assay type: ADME; settings: 1000 µM
DU-145 [4] = assay: Metabolic stability in human DU145 cells assessed as intracellular methylspermine level per ug DNA at 100 uM after 48 hrs in presence of serum amine oxidases inhibitor aminoguanidine; assay type: ADME, cell-based; settings: du-145, 48 h
DU-145 [5] = assay: Effect on intracellular level of S-adenosyl-Lmethionine in human DU145 cells assessed per million cells at 100 uM after 72 hrs in presence of serum amine oxidase inhibitor aminoguanidine and ODC inhibitor DFMO (RVb = 80 +/- 5 pmol/10^6 cells); assay type: functional
DU-145 [6] = assay: Metabolic stability in human DU145 cells assessed as intracellular compound level per ug DNA at 100 uM after 24 hrs in presence of serum amine oxidases inhibitor aminoguanidine; assay type: ADME, cell-based; settings: du-145, 24 h
DU-145 [7] = assay: Effect on intracellular level of decarboxylated S-adenosyl-L-methionine in human DU145 cells assessed per million cells at 100 uM after 72 hrs in presence of serum amine oxidase inhibitor aminoguanidine and ODC inhibitor DFMO (RVb = 263 +/- 14 pmol/10^6 cells); assay type: functional
DU-145 [8] = assay: Metabolic stability in human DU145 cells assessed as intracellular spermine level per ug DNA at 100 uM after 72 hrs in presence of serum amine oxidases inhibitor aminoguanidine (reference value: 154 +/- 7 pmol/ug DNA); assay type: ADME, cell-based; settings: du-145, 72 h
DU-145 [9] = assay: Metabolic stability in human DU145 cells assessed as intracellular spermidine level per ug DNA at 100 uM after 24 hrs in presence of serum amine oxidases inhibitor aminoguanidine (reference value: 154 +/- 7 pmol/ug DNA); assay type: ADME, cell-based; settings: du-145, 24 h
DU-145 [10] = assay: Metabolic stability in human DU145 cells assessed as intracellular spermidine level per ug DNA at 100 uM after 72 hrs in presence of serum amine oxidases inhibitor aminoguanidine (reference value: 137 +/- 3 pmol/ug DNA); assay type: ADME, cell-based; settings: du-145, 72 h
DU-145 [11] = assay: Metabolic stability in human DU145 cells assessed as intracellular methylspermine level per ug DNA at 100 uM after 72 hrs in presence of serum amine oxidases inhibitor aminoguanidine; assay type: ADME, cell-based; settings: du-145, 72 h
DU-145 [12] = assay: Metabolic stability in human DU145 cells assessed as intracellular compound/methylspermine level per ug DNA at 100 uM after 48 hrs in presence of serum amine oxidases inhibitor aminoguanidine; assay type: ADME, cell-based; settings: du-145, 48 h
DU-145 [13] = assay: Metabolic stability in human DU145 cells assessed as intracellular compound/methylspermine level per ug DNA at 100 uM after 24 hrs in presence of serum amine oxidases inhibitor aminoguanidine; assay type: ADME, cell-based; settings: du-145, 24 h
[14] = Cytotoxicity against human DU145 cells assessed as cell growth at 100 uM after 72 hrs in presence of serum amine oxidase inhibitor aminoguanidine (RVb = 49 +/- 2 pmol/10^6 cells); assay type: cell-based, DU-145; settings: read-out: Activity
DU-145 [15] = assay: Metabolic stability in human DU145 cells assessed as intracellular spermidine level per ug DNA at 100 uM after 48 hrs in presence of serum amine oxidases inhibitor aminoguanidine (reference value: 137 +/- 5 pmol/ug DNA); assay type: ADME, cell-based; settings: du-145, 48 h
DU-145 [16] = assay: Metabolic stability in human DU145 cells assessed as intracellular methylspermine level per ug DNA at 100 uM after 24 hrs in presence of serum amine oxidases inhibitor aminoguanidine; assay type: ADME, cell-based; settings: du-145, 24 h
DU-145 [17] = assay: Metabolic stability in human DU145 cells assessed as intracellular spermine level per ug DNA at 100 uM after 24 hrs in presence of serum amine oxidases inhibitor aminoguanidine (reference value: 122 +/- 11 pmol/ug DNA); assay type: ADME, cell-based; settings: du-145, 24 h
DU-145 [18] = assay: Metabolic stability in human DU145 cells assessed as intracellular compound level per ug DNA at 100 uM after 72 hrs in presence of serum amine oxidases inhibitor aminoguanidine; assay type: ADME, cell-based; settings: du-145, 72 h
DU-145 [19] = assay: Metabolic stability of the compound in human DU145 cells assessed as metabolites-mediated cell toxicity at 10 uM after 48 hrs by MTT assay in presence of bovine serum amine oxidase; assay type: ADME, cell-based; settings: du-145, 48 h
DU-145 [20] = assay: Metabolic stability in human DU145 cells assessed as intracellular compound level per ug DNA at 100 uM after 48 hrs in presence of serum amine oxidases inhibitor aminoguanidine; assay type: ADME, cell-based; settings: du-145, 48 h
DU-145 [21] = assay: Metabolic stability in human DU145 cells assessed as intracellular spermine level per ug DNA at 100 uM after 48 hrs in presence of serum amine oxidases inhibitor aminoguanidine (reference value: 133 +/- 4 pmol/ug DNA); assay type: ADME, cell-based; settings: du-145, 48 h
DU-145 [22] = assay: Metabolic stability in N1,N11-diethyl-norspermine pretreated human DU145 cells expressing SSAT assessed as intracellular accumulation of acetylated derivatives of compound at 100 uM after 48 hrs; assay type: ADME, cell-based; settings: du-145, 48 h
[23] = target: T1, Peroxisomal N(1)-acetyl-spermine/spermidine oxidase; assay: Metabolic stability of the compound assessed as human recombinant APAO-mediated compound degradation at 0.5 to 1 mM after 5 to 60 mins; assay type: ADME; settings: 1000 µM
DU-145 [24] = assay: Metabolic stability in human DU145 cells assessed as intracellular putrescine level per ug DNA at 100 uM after 24 hrs in presence of serum amine oxidases inhibitor aminoguanidine (reference value: 11 +/- 2 pmol/ug DNA); assay type: ADME, cell-based; settings: du-145, 24 h
DU-145 [25] = assay: Metabolic stability in human DU145 cells assessed as intracellular putrescine level per ug DNA at 100 uM after 48 hrs in presence of serum amine oxidases inhibitor aminoguanidine (reference value: 7 +/- 1 pmol/ug DNA); assay type: ADME, cell-based; settings: du-145, 48 h
DU-145 [26] = assay: Metabolic stability in human DU145 cells assessed as intracellular putrescine level per ug DNA at 100 uM after 72 hrs in presence of serum amine oxidases inhibitor aminoguanidine (reference value: 6 pmol/ug DNA); assay type: ADME, cell-based; settings: du-145, 72 h
DU-145 [27] = assay: Metabolic stability of the compound in human DU145 cells assessed as compound metabolite-mediated cell toxicity at 100 uM after 48 hrs by MTT assay in presence of bovine serum amine oxidase; assay type: ADME, cell-based; settings: du-145, 48 h
DU-145 [28] = assay: Metabolic stability in human DU145 cells assessed as intracellular Ac-8-Methylspermidine level per ug DNA at 100 uM after 24 hrs in presence of serum amine oxidases inhibitor aminoguanidine; assay type: ADME, cell-based; settings: du-145, 24 h
DU-145 [29] = assay: Metabolic stability in human DU145 cells expressing SSAT assessed as accumulation of acetylated derivatives of compound in medium at 100 uM after 48 hrs; assay type: ADME, cell-based; settings: du-145, 48 h
DU-145 [30] = assay: Metabolic stability in human DU145 cells assessed as intracellular Ac-8-Methylspermidine level per ug DNA at 100 uM after 48 hrs in presence of serum amine oxidases inhibitor aminoguanidine; assay type: ADME, cell-based; settings: du-145, 48 h
DU-145 [31] = assay: Metabolic stability in human DU145 cells assessed as intracellular Ac-8-Methylspermidine level per ug DNA at 100 uM after 72 hrs in presence of serum amine oxidases inhibitor aminoguanidine; assay type: ADME, cell-based; settings: du-145, 72 h

T1 sequence (Q6QHF9 whole entry): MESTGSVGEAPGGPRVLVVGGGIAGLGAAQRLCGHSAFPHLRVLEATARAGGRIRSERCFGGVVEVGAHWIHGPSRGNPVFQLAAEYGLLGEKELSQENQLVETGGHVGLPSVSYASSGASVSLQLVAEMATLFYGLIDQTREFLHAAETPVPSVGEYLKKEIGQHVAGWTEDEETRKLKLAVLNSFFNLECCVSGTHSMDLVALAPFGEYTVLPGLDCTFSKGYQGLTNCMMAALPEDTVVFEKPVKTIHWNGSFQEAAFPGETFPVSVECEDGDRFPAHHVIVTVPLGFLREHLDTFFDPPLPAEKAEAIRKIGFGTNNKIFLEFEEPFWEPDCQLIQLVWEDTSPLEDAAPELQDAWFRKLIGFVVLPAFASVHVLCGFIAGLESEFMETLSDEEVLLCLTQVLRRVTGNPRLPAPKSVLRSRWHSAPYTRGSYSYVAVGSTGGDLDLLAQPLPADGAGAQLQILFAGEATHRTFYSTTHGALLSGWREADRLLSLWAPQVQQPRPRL

| SMILES | Stability (DU-145 [1]) | Drug metabolism (DU-145 [2]) [pmol] | Stability [3] | Drug metabolism (DU-145 [4]) [pmol] | Activity (DU-145 [5]) [pmol] | Drug metabolism (DU-145 [6]) [pmol] | Activity (DU-145 [7]) [pmol] | Drug metabolism (DU-145 [8]) [pmol] | Drug metabolism (DU-145 [9]) [pmol/ug DNA] | Drug metabolism (DU-145 [10]) [pmol] | Drug metabolism (DU-145 [11]) [pmol] | Drug metabolism (DU-145 [12]) [pmol] | Drug metabolism (DU-145 [13]) [pmol] | viability at 72 h, 100 µM [14] [%] | Drug metabolism (DU-145 [15]) [pmol/ug DNA] | Drug metabolism (DU-145 [17]) [pmol] | Drug metabolism (DU-145 [18]) [pmol] | Stability (DU-145 [19]) | Drug metabolism (DU-145 [20]) [pmol] | Drug metabolism (DU-145 [21]) [pmol] | further results |
| --- | --- | --- | --- | --- | --- | --- | --- | --- | --- | --- | --- | --- | --- | --- | --- | --- | --- | --- | --- | --- | --- |
| CC(=O)NCCCNCCCCN | Unstable |  |  |  |  |  |  |  |  |  |  |  |  |  |  |  |  |  |  |  |  |
| C[C@H](N)CCNCCCCN | Unstable | 371 | Unstable | 44 | 177 | 264 | 49 | 74 | 15 | 16 | 60 | 283 | 301 | 84 | 11 | 62 | 311 | Stable | 239 | 55 | Drug metabolism (DU-145 [16]): 37 pmol |
| CC(CN)CNCCCCN.Cl (stereo not given) | Unstable | 214 | Unstable | 77 | 148 | 133 | <5 | 75 | 39 | 38 | 80 | 202 | 200 | 86 | 38 | 67 | 134 | Stable | 135 | 72 | Stability (DU-145 [22]): Unstable; Stability [23]: Unstable; Drug metabolism (DU-145 [24]): < 5 pmol; Drug metabolism (DU-145 [16]): 67 pmol; Drug metabolism (DU-145 [25]): < 5 pmol; Drug metabolism (DU-145 [26]): < 5 pmol |
| CC(CCN)NCCCCN.Cl (stereo not given) | Unstable | 176 | Stable |  | 149 | 181 | 109 | 115 | 23 | 22 |  | 168 | 181 | 91 | 18 | 92 | 176 | Stable | 168 | 103 | Drug metabolism (DU-145 [24]): < 5 pmol |
| CC(N)CCCNCCCN (stereo not given) | Unstable | 375 | Unstable | 39 | 138 | 257 | 60 | 70 | 30 | 20 | 43 | 326 | 257 | 93 | 18 | 83 | 332 | Stable | 287 | 57 | Stability (DU-145 [22]): Unstable; Stability (DU-145 [27]): Unstable; Drug metabolism (DU-145 [28]): 15 pmol; Stability (DU-145 [29]): Unstable; Drug metabolism (DU-145 [30]): 7 pmol; Drug metabolism (DU-145 [31]): 4 pmol |
| NCCCCNCCCN [SPERMIDINE] | Unstable |  | Unstable |  | 126 |  | <5 |  |  |  |  |  |  | 89 |  |  |  | Stable |  |  | Stability (DU-145 [27]): Unstable |
